Reference: ChEMBL document CHEMBL2331447, “Nocardiamides A and B, two cyclohexapeptides from the marine-derived actinomycete Nocardiopsis sp. CNX037” (J Nat Prod, 2013)
Activity calls are given as the source filed them.

What was measured:
Assay type in all cases: functional, organism-based
[1] = tested on: Bacillus thuringiensis; assay: Antimicrobial activity against Bacillus thuringiensis SCSIO BT01 assessed as inhibition of visible growth measured after 16 to 20 hrs by broth microdilution method
[2] = tested on: Enterococcus faecalis; assay: Antimicrobial activity against Enterococcus faecalis ATCC 29212 assessed as inhibition of visible growth measured after 16 to 20 hrs by broth microdilution method
[3] = tested on: Staphylococcus aureus; assay: Antimicrobial activity against Staphylococcus aureus ATCC 29213 assessed as inhibition of visible growth measured after 16 to 20 hrs by broth microdilution method
[4] = tested on: Escherichia coli; assay: Antimicrobial activity against Escherichia coli ATCC 25922 assessed as inhibition of visible growth measured after 16 to 20 hrs by broth microdilution method
[5] = tested on: Candida albicans; assay: Antimicrobial activity against Candida albicans ATCC 10231 assessed as inhibition of visible growth measured after 16 to 20 hrs by broth microdilution method
[6] = tested on: Micrococcus luteus; assay: Antimicrobial activity against Micrococcus luteus SCSIO ML01 assessed as inhibition of visible growth measured after 16 to 20 hrs by broth microdilution method
[7] = tested on: Bacillus subtilis; assay: Antimicrobial activity against Bacillus subtilis SCSIO BS01 assessed as inhibition of visible growth measured after 16 to 20 hrs by broth microdilution method

Measured: Activity

CC(C)C[C@@H](NC(=O)[C@H](NC(=O)[C@@H](NC(=O)[C@H](N)C(C)C)C(C)C)C(C)C)C(=O)N[C@H](C(=O)N[C@@H](Cc1ccc(O)cc1)C(=O)O)C(C)C
inactive: all assays above

CC[C@H](C)[C@@H]1NC(=O)[C@@H](CC(C)C)NC(=O)[C@@H](C(C)C)NC(=O)[C@H](C(C)C)NC(=O)[C@@H](C(C)C)NC(=O)[C@H](Cc2ccc(O)cc2)NC1=O
inactive: all assays above

CC[C@H](C)[C@H](NC(=O)[C@@H](CC(C)C)NC(=O)[C@H](NC(=O)[C@@H](NC(=O)[C@H](N)C(C)C)C(C)C)C(C)C)C(=O)N[C@@H](Cc1ccc(O)cc1)C(=O)O
inactive: all assays above

CC(C)C[C@H]1NC(=O)[C@@H](C(C)C)NC(=O)[C@H](C(C)C)NC(=O)[C@@H](C(C)C)NC(=O)[C@H](Cc2ccc(O)cc2)NC(=O)[C@H](C(C)C)NC1=O
inactive: all assays above
